Experimental data reported in patent publication US20260274892A1, “MACROCYCLIC BROAD SPECTRUM ANTIBIOTICS” (RQx Pharmaceuticals, Inc., priority 2017, published 2026).

Experiments:
[1] = tested on: Methicillin Resistant Staphylococcus aureus strain USA 200; assay: Minimum inhibitory concentration (MIC), CLSI broth micro-dilution, S. aureus; type: cell-based; conditions: Staphylococcus aureus, MRSA / USA200; Table 6; MRSA USA 200; cation adjusted Mueller Hinton Broth + 0.002% Tween-80; 35° C., 22 hours
In short: (§1)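 Antibacterial potency is measured as MIC by the CLSI broth dilution method. Bacteria at OD600 0.0005 in Tween-80-supplemented cation-adjusted Mueller Hinton broth face ten twofold compound dilutions for 22 h at 35° C.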

[2] = tested on: Escherichia coli ATCC 25922; assay: Minimum inhibitory concentration (MIC), CLSI broth micro-dilution, E. coli; type: cell-based; conditions: Escherichia coli, ATCC25922, 22 h, Table 6, cation adjusted Mueller Hinton Broth + 0.002% Tween-80, 35° C.
In short: as §1

| Structure (SMILES) | MIC [1] | MIC [2] |
| --- | --- | --- |
| Cc1nc(-c2ccc3c(c2)CCC3(C)C)nc(C)c1C(=O)N[C@@H](CCN)C(=O)N(C)[C@@H]1C(=O)N[C@@H](C)C(=O)N[C@H](C(=O)NCC#N)Cc2ccc(OCCN)c(c2)-c2cc1ccc2OCCN (racemic) [Compound 269, rac-(8S,11S,14S)-3,18-bis(2-aminoethoxy)-N-(cyanomethyl)-11-methyl-14-[methyl-[rac-(2S)-4-amino-2-[[2-(1,1-dimethylindan-5-yl)-4,6-dimethyl-pyrimidine-5-carbonyl]amino]butanoyl]amino]-10,13-dioxo-9,12-diazatricyclo[13.3.1.12,6]icosa-1(18),2(20),3,5,15(19),16-hexaene-8-carboxamide] | 0.016 µM | 0.094 µM |
| Cc1nc(-c2ccc3c(c2)OCCC3(C)C)nc(C)c1C(=O)N[C@@H](CCN)C(=O)N(C)[C@@H]1C(=O)N[C@@H](C)C(=O)N[C@H](C(=O)NCC#N)Cc2ccc(OCCN)c(c2)-c2cc1ccc2OCCN (racemic) [Compound 271, rac-(8S,11S,14S)-3,18-bis(2-aminoethoxy)-N-(cyanomethyl)-11-methyl-14-[methyl-[rac-(2S)-4-amino-2-[[2-(4,4-dimethylchroman-7-yl)-4,6-dimethyl-pyrimidine-5-carbonyl]amino]butanoyl]amino]-10,13-dioxo-9,12-diazatricyclo[13.3.1.12,6]icosa-1(18),2(20),3,5,15(19),16-hexaene-8-carboxamide] | 0.032 µM | 0.26 µM |
| CC(C)=C(C)c1ccc(-c2nc(C)c(C(=O)N[C@@H](CCN)C(=O)N(C)[C@@H]3C(=O)N[C@@H](C)C(=O)N[C@H](C(=O)NCC#N)Cc4ccc(OCCN)c(c4)-c4cc3ccc4OCCN)c(C)n2)cc1 (racemic) [Compound 272, rac-(8S,11S,14S)-3,18-bis(2-aminoethoxy)-N-(cyanomethyl)-11-methyl-14-[methyl-[rac-(2S)-4-amino-2-[[2-[4-(1,2-dimethylprop-1-enyl)phenyl]-4,6-dimethyl-pyrimidine-5-carbonyl]amino]butanoyl]amino]-10,13-dioxo-9,12-diazatricyclo[13.3.1.12,6]icosa-1(18),2(20),3,5,15(19),16-hexaene-8-carboxamide] | 0.012 µM | 0.065 µM |

The remaining compounds from weak to strong by MIC [1], led by results:

| MIC [1] | MIC [2] | Structure (SMILES) |
| --- | --- | --- |
| 0.012 µM | 0.064 µM | Cc1nc(-c2ccc3c(c2)CCCC3(C)C)nc(C)c1C(=O)N[C@@H](CCN)C(=O)N(C)[C@@H]1C(=O)N[C@@H](C)C(=O)N[C@H](C(=O)NCC#N)Cc2ccc(OCCN)c(c2)-c2cc1ccc2OCCN (racemic) [Compound 270, rac-(8S,11S,14S)-3,18-bis(2-aminoethoxy)-N-(cyanomethyl)-11-methyl-14-[methyl-[rac-(2S)-4-amino-2-[[2-(1,1-dimethyltetralin-6-yl)-4,6-dimethyl-pyrimidine-5-carbonyl]amino]butanoyl]amino]-10,13-dioxo-9,12-diazatricyclo[13.3.1.12,6]icosa-1(18),2(20),3,5,15(19),16-hexaene-8-carboxamide] |
| 0.0082 µM | 0.099 µM | CC(C)=Cc1ccc(-c2nc(C)c(C(=O)N[C@@H](CCN)C(=O)N(C)[C@@H]3C(=O)N[C@@H](C)C(=O)N[C@H](C(=O)NCC#N)Cc4ccc(OCCN)c(c4)-c4cc3ccc4OCCN)c(C)n2)cc1 (racemic) [Compound 273, rac-(8S,11S,14S)-3,18-bis(2-aminoethoxy)-N-(cyanomethyl)-11-methyl-14-[methyl-[rac-(2S)-4-amino-2-[[4,6-dimethyl-2-[4-(2-methylprop-1-enyl)phenyl]pyrimidine-5-carbonyl]amino]butanoyl]amino]-10,13-dioxo-9,12-diazatricyclo[13.3.1.12,6]icosa-1(18),2(20),3,5,15(19),16-hexaene-8-carboxamide] |
